Reference: ChEMBL document CHEMBL4393685, “Synthesis and evaluation of pyrimidoindole analogs in umbilical cord blood ex vivo expansion” (Eur J Med Chem, 2019)
Active and inactive are the calls of the source. The calls are words filed in the database; no cut-off is given here.

Key:
[1] = Stimulation of ex vivo expansion of human CD34+ cells assessed as CD34+/CD38- cells at 165 nM incubated for 7 days supplemented with 50% fresh medium containing cytokines every other day by flow cytometry (reference value: 19.16 +/- 0.32%); format: functional
[2] = Stimulation of ex vivo expansion of human CD34+ cells assessed as CD34+CD38-CD90+[…] cells at 165 nM incubated for 7 days supplemented with 50% fresh medium containing cytokines every other day by flow cytometry (reference value: 2.98 +/- 0.5%); format: functional
[3] = Stimulation of ex vivo expansion of human CD34+ cells assessed as increase in CD34+CD38- cells at 165 nM incubated for 7 days supplemented with 50% fresh medium containing cytokines every other day by flow cytometry relative to base line; format: functional
[4] = Stimulation of ex vivo expansion of human CD34+ cells assessed as CD34+ cells at 165 nM incubated for 7 days supplemented with 50% fresh medium containing cytokines every other day by flow cytometry (reference value: 25.9 +/- 0.01%); format: functional
[5] = Stimulation of ex vivo expansion of human CD34+ cells assessed as CD34+CD38- level incubated for 7 days supplemented with 50% fresh medium containing cytokines every other day by flow cytometry; format: functional; conditions: Homo sapiens, 168 h; read-out: EC50
Homo sapiens [6] = species: Homo sapiens; test: Stimulation of ex vivo expansion of human CD34+ assessed as increase in granulocyte differentiation at 165 nM measured after 14 days; format: functional
[7] = Stimulation of ex vivo expansion of human CD34+ cells assessed as increase in expansion of total cells at 165 nM incubated for 7 days supplemented with 50% fresh medium containing cytokines every other day by flow cytometry relative to base line; format: functional
THP-1 = test: Cytotoxicity against human THP1 cells assessed as reduction cell viability up to 1600 nM after 4 days by CCK8 assay; format: cell-based; conditions: thp-1, 96 h
[8] = Stimulation of ex vivo expansion of human CD34+ cells assessed as CD34+/CD38- level at 0.01 to 1 uM incubated for 7 days supplemented with 50% fresh medium containing cytokines every other day by flow cytometry relative to control; format: functional
[9] = Stimulation of ex vivo expansion of human CD34+ cells assessed as increase in CD34+CD38- cells at 165 nM incubated for 7 days supplemented with 50% fresh medium containing cytokines every other day by flow cytometry relative to control; format: functional
[10] = Stimulation of ex vivo expansion of human CD34+CD38- cells assessed as increase in expansion of total cells at 165 nM incubated for 7 days supplemented with 50% fresh medium containing cytokines every other day by flow cytometry relative to control; format: functional
[11] = Stimulation of ex vivo expansion of human CD34+ cells assessed as CD34+CD38- level at 0.01 to 1 uM incubated for 7 days supplemented with 50% fresh medium containing cytokines every other day by flow cytometry (reference value: 19.10 +/- 0.35%); format: functional
[12] = Stimulation of ex vivo expansion of human CD34+ cells assessed as increase in CD34+ cells at 165 nM incubated for 7 days supplemented with 50% fresh medium containing cytokines every other day by flow cytometry relative to base line; format: functional
[13] = Stimulation of ex vivo expansion of human CD34+ cells assessed as CD34+CD38-CD90+[…]CD49F+ cells at 165 nM incubated for 7 days supplemented with 50% fresh medium containing cytokines every other day by flow cytometry (reference value: 0.16 +/- 0.04%); format: functional
[14] = Cytotoxicity against human CD34+ cells assessed as live cells at 165 nM incubated for 7 days supplemented with 50% fresh medium containing cytokines every other day by flow cytometry (reference value: 77.3 +/- 2%); format: cell-based; conditions: read-out: Activity
[15] = Stimulation of ex vivo expansion of human CD34+ cells assessed as increase in colony forming cells at 165 nM after 14 days relative to control; format: functional
[16] = Stimulation of ex vivo expansion of human CD34+ cells assessed as increase in expansion of total cells at 165 nM incubated for 7 days supplemented with 50% fresh medium containing cytokines every other day by flow cytometry relative to control; format: functional
Homo sapiens [17] = species: Homo sapiens; test: Stimulation of ex vivo expansion of human CD34+ cells assessed as decrease in burst forming units of erythroid at 165 nM measured after 14 days; format: functional
Homo sapiens [18] = species: Homo sapiens; test: Stimulation of ex vivo expansion of human CD34+ cells assessed as increase in granulocyte/macrophage differentiation at 165 nM measured after 14 days; format: functional
[19] = Stimulation of ex vivo expansion of human CD34+ cells assessed as colony forming cells at 165 nM measured after 14 days; format: functional

COc1cc2c(cc1OC)CN(CCNc1nc(Cc3ccccc3)nc3[nH]c4cc(-c5nnn(C)n5)ccc4c13)CC2
Activity [1]: 58% | Activity [2]: 4.05% | fold change (FC) [3]: 4 - 5 | Activity [4]: 60.33% | EC50 [5]: 0.03 µM | Activity (Homo sapiens [6]): Active | fold change (FC) [7]: 5 | Activity (THP-1): Non-Toxic | fold change (FC) [8]: 3.65 | fold change (FC) [9]: 4.4 | fold change (FC) [10]: 4.9 | Activity [11]: 69.69% | fold change (FC) [12]: 5 | Activity [13]: 0.21% | viability at 168 h, 0.165 µM [14]: 80.6% | fold change (FC) [15]: 1.4 | fold change (FC) [16]: 2.4 | Activity (Homo sapiens [17]): Active | Activity (Homo sapiens [18]): Active | Activity [19]: 254 CFU
